Reference: patent publication US20080119457A1, “Benzene, Pyridine, and Pyridazine Derivatives” (SERENEX, INC., priority 2006, published 2008)

What follows are compounds tested on HSP-90 (heat shock protein 90) (assay: Determination of affinity for HSP-90 (elution from purine affinity column)).
Format: binding
Parameters: key: +++ stands for very high; ++ for high; + for moderate
Experimental: Affinity of test compounds for HSP-90 is determined as follows: Protein mixtures obtained from a variety of organ tissues (for example: spleen, liver and lung) are reversibly bound to a purine affinity column to capture purine-binding proteins, especially HSP-90. The purine affinity column is washed several times, and then eluted with 20 μM, 100 μM, and 500 μM of test compound. Compounds of Formula I elute HP-90 in a dose-dependent manner vs. a control elution using dimethylsulfoxide. The elution profile of Formula I compounds is determined by 1-dimensional SDS polyacrylamide gel electrophoresis. Gels are stained with a fluorescent stain such as sypro ruby (a highly sensitive fluorescent protein stain that can readily detect less than 1 fmol of total protein, i.e., less than 0.04 ng for a 40 kDa protein) or silver nitrate. The gels are imaged using a standard flat bed gel imager and the amount of protein estimated by densitometry. The percent of HSP-90 protein eluted from the column at each concentration is determined and IC50 values are calculated from these estimates.

Row | Structure (SMILES) | relative binding affinity to HSP-90
1 | Cn1nc(-c2ccc(C(N)=O)c(NC3CCOCC3)c2)c2c1C(=O)CC(C)(C)C2 [Compound 3, 2-(Tetrahydro-pyran-4-ylamino)-4-(1,5,5-trimethyl-7-oxo-4,5,6,7-tetrahydro-1H-indazol-3-yl)-benzamide] | +++
2 | Cc1cc(=O)c2c(C)nn(-c3ccc(C(N)=O)c(NC4CCOCC4)c3)c2o1 [Compound 7, 4-(3,6-Dimethyl-4-oxo-4H-pyrano[2,3-c]pyrazol-1-yl)-2-(tetrahydro-pyran-4-ylamino)-benzamide] | +++
3 | Cc1nn(-c2ccc(C(N)=O)c(NC3CCOCC3)c2)c2nc[nH]c(=O)c12 [Compound 9, 4-(3-Methyl-4-oxo-4,5-dihydro-pyrazolo[3,4-d]pyrimidin-1-yl)-2-(tetrahydro-pyran-4-ylamino)-benzamide] | +
4 | COc1ccc2ccn(-c3ccc(C#N)c(N[C@H]4CC[C@H](O)CC4)c3)c2c1 [Compound 19, 2-(4-Hydroxycyclohexylamino)-4-(6-methoxyindol-1-yl)benzonitrile] | +++
5 | COc1cccc2c1ccn2-c1ccc(C#N)c(N[C@H]2CC[C@H](O)CC2)c1 [Compound 21, 2-(4-Hydroxycyclohexylamino)-4-(4-methoxyindol-1-yl)benzonitrile] | +++

The next lines start with the values.

Row | relative binding affinity to HSP-90 | Structure (SMILES)
6 | ++ | CC(=O)c1ccc(-c2ccc(C#N)c(NC3CCC(O)CC3)c2)s1 (centres unmarked) [Compound 23, 4-(5-Acetyl-thiophen-2-yl)-2-(4-hydroxy-cyclohexylamino)-benzonitrile]
7 | + | COc1cc2ccn(-c3ccc(C#N)c(Nc4ccccc4)c3)c2cc1OC [Compound 34, 4-(5,6-dimethoxy-1H-indol-1-yl)-2-(phenylamino)benzonitrile]
8 | +++ | Cc1nc(-c2ccc(C#N)c(NC3CCOCC3)c2)n2c1C(=O)CCC2 [Compound 35, 4-(1-methyl-8-oxo-5,6,7,8-tetrahydroimidazo[1,5-a]pyridin-3-yl)-2-(tetrahydro-2H-pyran-4-ylamino)benzonitrile]
9 | ++ | NC(=O)c1ccc(-n2ccc3ccccc32)c(Cl)c1 [Compound 46, 3-chloro-4-(1H-indol-1-yl)benzamide]
10 | ++ | COCC(C)Nc1cc(-n2cc(C)c(C(C)=O)c2C)ccc1C(N)=O (centres unmarked) [Compound 47, 4-(3-acetyl-2,4-dimethyl-1H-pyrrol-1-yl)-2-(1-methoxypropan-2-ylamino)benzamide]
11 | +++ | N#Cc1ccc(-c2ccc3n2CCCC3=O)cc1NC1CCC(O)CC1 (centres unmarked) [Compound 51, 2-(4-hydroxycyclohexylamino)-4-(8-oxo-5,6,7,8-tetrahydroindolizin-3-yl)benzonitrile]
